{
  "source": "patent US12186283B2",
  "about": "“Bismuth-thiol compositions and methods of use” (Microbion Corporation, priority 2018, dated 2025)",
  "key": {"M. avium": {"test_system": "M. avium", "test": "MIC against CF isolates (Example 5)", "assay_type": "cell-based", "settings": "Mycobacterium avium, strain MAC101, M. avium, MAC reference strain, blood isolate from HIV patient"}, "[1]": {"test": "Rat single-dose PK: whole blood BisEDT (bismuth by ICP-MS)"}, "P. aeruginosa": {"test_system": "P. aeruginosa", "settings": "control strain ATCC 27853 P. aeruginosa; cited from earlier work"}, "[2]": {"test": "Hematology after face-mask inhalation in beagle dogs", "assay_type": "in vivo", "settings": "inhalation Day 0 and 7, animal and Avg lines, samplings not labelled", "description": "The objective of the study is to determine the maximum tolerated dose (MTD) or maximum feasible dose (MFD) of inhaled bismuth ethanedithiol (BisEDT) after face-mask inhalation exposure (up to 60 min of exposure) in male and female beagle dogs. Animals will be monitored for up to 14 days following the first day of exposure and blood will be collected at predetermined timepoints to analyze the pharmacokinetics of BisEDT. In addition, a coagulation panel will be conducted prior to necropsy. At the conclusion of the study animals will be euthanized and undergo necropsy during which the respiratory tract will be harvested for bioanalytical and histopathological analysis. Results obtained will inform a follow up repeated dose GLP study. This test article is currently being developed as a novel formulation of a broad spectrum antimicrobial/antibiofilm agent, indicated for the treatment of lung infections in patients with cystic fibrosis.\nOnce adequately conditioned to the restraint device and face-masks, the animals are individually exposed to the test article aerosols. Animals receive a single face-mask inhalation exposure in a ramp study design to test article aerosols for up to 60 min. Animal observations during and post exposure determine the tolerance of inhaled BisEDT aerosols.\nGroup 1 (vehicle) are exposed to a vehicle atmosphere for 30 minutes. Group 2 (50 μg/kg) are exposed to BisEDT for 30 minutes. Target concentrations and exposure durations for Groups 3-5 are based on the presence of any toxicity via clinical observations or gross necropsy findings. In each of Groups 3-5, if no adverse clinical signs of toxicity are observed, the next groups' exposure will be conducted at a higher target dose. If adverse clinical signs of toxicity are observed, the next groups' exposure will be conducted at a lower target dose. This approach is repeated for all BisEDT doses. The final documented exposure duration is the maximum tolerated dose or the maximum feasible dose.\nBlood are collected for pharmacokinetic (PK) analysis prior to exposure, then at 4 hr (±5 min) post exposure, and again on Day 1, Day 2, Day 7 (pre- and 4 hr (±5 min)-post exposure), Day 8, Day 9, Day 10, Day 11, Day 12, Day 13, and Day 14. A total of 0.25 mL is collected at each timepoint. No PK blood is collected from the vehicle control (Group 1) animals; only animals exposed to BisEDT have blood collected for PK analysis. Collected samples are flash frozen without processing for shipment to Medpace for bioanalytical analysis. Additional blood is collected from all animals in all groups for hematology (1 mL) and clinical chemistry (1 mL) at baseline, Day 7 (pre-exposure), and again at euthanasia. Blood (2-2 mL) is collected from all animals at necropsy for coagulation analysis (d-Dimer, fibrinogen, PT, and PTT).\nFor hematology analyses, whole blood (1 ml) will be collected with vacutainers containing K3EDTA as an anticoagulant.\nHematology samples are analyzed by automated (ADVIA™ 120 Hematology System, Siemens Medical Solutions Diagnostics, Tarrytown, NY) analyses. Disposition will be recorded on the sample processing form."}, "Klebsiella pneumoniae": {"test_system": "Klebsiella pneumoniae", "test": "Broth microdilution MIC (Example 12)"}, "[3]": {"settings": "dogs Group 2 (target 50 μg/kg; lung deposited 55-56 ug/kg)"}},
  "note": "Values joined by “and” are separate entries in the source; they are usually repeats but may differ in a detail not shown here. Identical values can stand only once.",
  "data": [
    {"molecule": "CC(S)C(C)S.[Bi]", "note": "(stereo not shown) [BisBDT, bismuth-2,3-butanedithiol]", "values": [
      {"measurement": "MIC", "setting": "M. avium", "value": 1, "unit": "µg/mL"}
    ]},
    {"molecule": "C1C[S][Bi]([S]CC[S][Bi]2[S]CC[S]2)[S]1", "note": "[BisEDT, bismuth-1,2-ethanedithiol]", "values": [
      {"measurement": "duration of initial distribution into tissues", "setting": "[1]; IV dosing, biphasic pattern", "value": 18, "unit": "h"},
      {"measurement": "systemic levels lower than in the lung", "setting": "[1]; inhalation dosing", "value": "about 10 ×"},
      {"measurement": "blood exposure", "setting": "[1]; inhalation dosing 100 μg/kg", "value": "sustained, moderate, blood exposure with relatively stable concentrations across time"},
      {"measurement": "blood concentrations", "setting": "[1]; oral dosing 250 μg/kg", "value": "very low, but sustained and measurable"},
      {"measurement": "Expected MIC: acceptable range", "setting": "P. aeruginosa", "value": "0.5 to 4", "unit": "µg/mL"},
      {"measurement": "Expected MIC: goal", "setting": "P. aeruginosa", "value": "1 to 2", "unit": "µg/mL"},
      {"measurement": "HGB", "setting": "[2]; [3]", "value": "15.6 g/dL and 15.0 g/dL and 14.2 g/dL and 16.4 g/dL and 14.3 g/dL"},
      {"measurement": "LUC", "setting": "[2]; [3]", "value": "0.01 ^3/uL and 0.02 ^3/uL"},
      {"measurement": "MCH", "setting": "[2]; [3]", "value": "22.8 pg and 23.2 pg and 22.7 pg and 22.3 pg and 21.9 pg"},
      {"measurement": "MCHC", "setting": "[2]; [3]", "value": "34.1 g/dL and 34.9 g/dL and 33.4 g/dL and 34.4 g/dL and 33.2 g/dL"},
      {"measurement": "MONO", "setting": "[2]; [3]", "value": "0.63 ^3/uL and 0.67 ^3/uL and 0.53 ^3/uL and 0.50 ^3/uL and 0.51 ^3/uL"},
      {"measurement": "LUC", "setting": "[2]; dogs Group 4 (lung deposited 176-197 ug/kg)", "value": "0.01 ^3/uL and 0.02 ^3/uL"}
    ]},
    {"molecule": "C[C@@H](O)[C@H]1C(=O)N2C(C(=O)O)=C(S[C@@H]3CN[C@H](C(=O)N(C)C)C3)[C@H](C)[C@H]12", "note": "[MEM]", "values": [
      {"measurement": "MIC", "setting": "Klebsiella pneumoniae; K. pneumoniae ATCC BAA-1705, QC organism", "value": 8, "unit": "µg/mL"},
      {"measurement": "MIC", "setting": "Klebsiella pneumoniae; Klebsiella pneumoniae ATCC BAA-1705, ESBL/KPC", "value": 8, "unit": "µg/mL"},
      {"measurement": "MIC", "setting": "Klebsiella pneumoniae; Klebsiella pneumoniae CDC 112, KPC", "value": ">8", "unit": "µg/mL"},
      {"measurement": "MIC", "setting": "Klebsiella pneumoniae; Klebsiella pneumoniae CDC 113, ESBL/KPC", "value": ">8", "unit": "µg/mL"},
      {"measurement": "MIC", "setting": "Klebsiella pneumoniae; Klebsiella pneumoniae CDC 115, ESBL/KPC", "value": ">8", "unit": "µg/mL"},
      {"measurement": "MIC", "setting": "Klebsiella pneumoniae; Klebsiella pneumoniae CDC 120, ESBL/KPC", "value": ">8", "unit": "µg/mL"},
      {"measurement": "MIC", "setting": "Klebsiella pneumoniae; Klebsiella pneumoniae CDC 126, ESBL/KPC", "value": 4, "unit": "µg/mL"},
      {"measurement": "MIC", "setting": "Klebsiella pneumoniae; Klebsiella pneumoniae CDC 129, ESBL/KPC", "value": 8, "unit": "µg/mL"},
      {"measurement": "MIC", "setting": "Klebsiella pneumoniae; Klebsiella pneumoniae CDC 135, ESBL/VIM", "value": 1, "unit": "µg/mL"},
      {"measurement": "MIC", "setting": "Klebsiella pneumoniae; Klebsiella pneumoniae CDC 138, ESBL/NDM", "value": ">8", "unit": "µg/mL"},
      {"measurement": "MIC", "setting": "Klebsiella pneumoniae; Klebsiella pneumoniae CDC 158, ESBL/NDM/OXA", "value": ">8", "unit": "µg/mL"},
      {"measurement": "MIC", "setting": "Klebsiella pneumoniae; Klebsiella pneumoniae MMX 9029, ESBL", "value": 0.015, "unit": "µg/mL"}
    ]}
  ]
}
